Results reported in patent publication US20180200257A1, “METHODS FOR THE TREATMENT OF INFLAMMATORY DISORDERS” (Galapagos NV, priority 2015, published 2018).

Test system: subjects with moderately to severely active RA who have an inadequate response to methotrexate (MTX)
Test: Study 1 (add-on to MTX) - ACR responses (ACR20/50/70)
Format: in vivo, human
Text: The terms “ACR20”, “ACR50” and “ACR70” as used herein are scores which indicate how much a patient's rheumatoid arthritis has improved according to criteria set out by the American College of Rheumatology (ACR). The ACR score represents a percentage. An ACR20 score means that a person's RA has improved by 20%, an ACR50 score means it has improved by 50%, and an ACR70 score means it has improved by 70%. Specifically, to qualify for an ACR20 score, a person with RA must have at least 20% fewer tender joints and at least 20% fewer swollen joints. In addition the patient must show a 20% improvement in at least three of the following five areas: the person's overall (global) assessment of his or her own RA, the physician's global assessment of the person's RA, the person's assessment of his or her own pain, the person's assessment of his or her own physical functioning, and the results of an erythrocyte sedimentation rate or C-reactive protein (CRP) blood test (both of which test for inflammation). ACR50 and ACR70 scores use the same criteria but require 50% and 70% improvement, respectively, (Felson et al., 1993). In the data presented herein the CRP blood test is used.
Double-blind, placebo-controlled add on study in subjects with moderately to severely active RA who have an inadequate response to methotrexate (MTX) (oral or parenteral).
595 subjects randomized to one of 6 dose regimens of Compound 1 (dosed as [Compound 1:HCl:3H2O]) (3 dose levels administered either once or twice daily) or placebo on top of each subject's stable dose of MTX.
Compound 1 (dosed as [Compound 1:HCl:3H2O]) is dosed for twelve weeks once daily (q.d.) (50 mg, 100 mg or 200 mg) or twice daily (b.i.d.) (25 mg, 50 mg or 100 mg); or placebo.
At Week 12, the subjects on placebo who have not achieved 20% improvement in swollen joint count (SJC66) and tender joint count (TJC68) are re-randomized automatically to receive Compound 1 (dosed as a [Compound 1:HCl:3H2O]) either at 100 mg q.d. or 50 mg b.i.d. doses in a blinded fashion; subjects on 50 mg q.d. who have not achieved 20% improvement in SJC66 and TJC68 will be assigned to 100 mg q.d. and subjects on 25 mg b.i.d. that have not achieved a 20% improvement in SJC66 and TJC68 will be assigned to 50 mg b.i.d. Subjects who switch treatment at week 12 are handled as if they discontinued at week 12 for the purpose of statistical analysis, whereas subjects in the other groups will maintain their randomized treatment until Week 24.
The American College of Rheumatology (ACR) composite score, which evaluates clinical improvement relative to an initial assessment, is a commonly accepted efficacy end point for clinical trials in patients with rheumatoid arthritis. The ACR score correspond to a percentage improvement in pre-set parameters, and therefore measures the evolution of the disease in a patient. For example, ACR20 denotes at least 20% improvement in tender and swollen joint counts and in three of the following end points: global assessment by the patient, global assessment by the doctor, C reactive protein (CRP), patient's pain Visual Analogue Scale and Health Assessment Questionnaire Score. The number of swollen joints, ESR and CRP correlate with radiographic progression of joint damage, whereas tender joint counts, as well as global assessments by doctors and patients, and patients' reports of pain, are sensitive to change in clinical outcomes. Physical function, as assessed by the Health Assessment Questionnaire Score, is a potent predictor of the risk of disability in rheumatoid arthritis (Felson and American College of Rheumatology Committee to Reevaluate Improvement Criteria, 2007; Felson et al., 1993).
In particular, the list of parameters used to assess ACR score can be found in the Table XCVI below and the results of the ACR responses at week 12 via either NRI or LOCF are shown in the tables below. The Hommel-corrected p-value for the pairwise comparisons of each group with placebo is shown. […]

[1] = 2 × 25 mg b.i.d., week 20, 24 weeks results
[2] = 2 × 25 mg b.i.d., week 24, 24 weeks results
[3] = 2 × 25 mg b.i.d., at week 1, 12 weeks results
[4] = 2 × 25 mg b.i.d., at week 1, 24 weeks results
[5] = 2 × 50 mg b.i.d., week 2, 12 weeks results
[6] = 2 × 50 mg b.i.d., week 2, 24 weeks results
[7] = 2 × 50 mg b.i.d., week 4, 12 weeks results
[8] = 2 × 50 mg b.i.d., week 4, 24 weeks results
[9] = 2 × 50 mg b.i.d., week 8, 12 weeks results
[10] = 2 × 50 mg b.i.d., week 8, 24 weeks results

O=C(Nc1nc2cccc(-c3ccc(CN4CCS(=O)(=O)CC4)cc3)n2n1)C1CC1 [Compound 1, cyclopropanecarboxylic acid {5-[4-(1,1-dioxo-thiomorpholin-4-ylmethyl)-phenyl]-[1,2,4]triazolo[1,5-a]pyridin-2-yl}-amide]
ACR20 (NRI) [1]: 52.3%
ACR50 (LOCF) [1]: 41.9%
ACR70 (LOCF) [1]: 11.6%
ACR20 (LOCF) [2]: 62.8%
ACR20 (NRI) [2]: 55.8%
ACR50 (LOCF) [2]: 38.4%
ACR70 (LOCF) [2]: 22.1%
ACR20 (LOCF) [3]: 17.4%
ACR20 (NRI) [3]: 17.4%
ACR50 (LOCF) [3]: 2.3%
ACR50 (NRI) [3]: 3.5%
ACR70 (LOCF) [3]: 1.2%
ACR70 (NRI) [3]: 1.2%
ACR20 (LOCF) [4]: 17.4%
ACR20 (NRI) [4]: 17.4%
ACR50 (LOCF) [4]: 3.5%
ACR50 (NRI) [4]: 3.5%
ACR70 (LOCF) [4]: 2.4%
ACR70 (NRI) [4]: 1.2%
ACR20 (LOCF) [5]: 40.0%
ACR20 (NRI) [5]: 41.2%
ACR50 (LOCF) [5]: 11.8%
ACR50 (NRI) [5]: 11.8%
ACR70 (LOCF) [5]: 5.9%
ACR70 (NRI) [5]: 5.9%
ACR20 (LOCF) [6]: 41.2%
ACR20 (NRI) [6]: 41.2%
ACR50 (LOCF) [6]: 11.8%
ACR50 (NRI) [6]: 11.8%
ACR70 (LOCF) [6]: 5.9%
ACR70 (NRI) [6]: 5.9%
ACR20 (LOCF) [7]: 45.9%
ACR20 (NRI) [7]: 44.7%
ACR50 (LOCF) [7]: 20.0%
ACR50 (NRI) [7]: 17.6%
ACR70 (LOCF) [7]: 9.4%
ACR70 (NRI) [7]: 9.4%
ACR20 (LOCF) [8]: 47.1%
ACR20 (NRI) [8]: 45.3%
ACR50 (LOCF) [8]: 20.0%
ACR50 (NRI) [8]: 17.6%
ACR70 (LOCF) [8]: 9.4%
ACR70 (NRI) [8]: 9.4%
ACR20 (LOCF) [9]: 55.3%
ACR20 (NRI) [9]: 54.1%
ACR50 (LOCF) [9]: 32.9%
ACR50 (NRI) [9]: 32.9%
ACR70 (LOCF) [9]: 14.1%
ACR70 (NRI) [9]: 14.1%
ACR20 (LOCF) [10]: 55.3%
ACR20 (NRI) [10]: 54.1%
ACR50 (LOCF) [10]: 32.9%
ACR50 (NRI) [10]: 32.9%
ACR70 (LOCF) [10]: 14.1%
